Reference: patent US8624035B2, “Functionalized cyanine having a silane linker arm, a method of preparing thereof and uses thereof” (Universita' Degli Studi di Torino, priority 2008, dated 2014)

Assay: Photodegradation over time under excitation with laser light at 532 nm
Format: physicochemical
Conditions: after 350 minutes, FIG. 3
Procedure: The emission of nanoparticles is 15-folds higher than the emission of the solution. Moreover, the photodegradation of fluorescent nanoparticles over time was compared to the photodegradation of the cyanine in solution. […] It observed that the cyanine immobilized within the nanoparticle undergoes a 5% photodegradation after 350 minutes, whilst the cyanine dye in solution undergoes a 45% photodegradation within the same time.

- photodegradation (percentage of emission compared to time zero): 45%
Compound: CO[Si](CCCN1/C(=C/C=C/C2=[N+](CCC[Si](OC)(OC)OC)c3ccc(S(=O)(=O)[O-])cc3C2(C)C)C(C)(C)c2cc(S(=O)(=O)[O-])ccc21)(OC)OC.[K+] [Compound 1, 1-propyltrimethoxysilane-1′-propyltrimethoxysilane-3,3,3,3′-tetramethyl-5,5′-disulfonate-indomonocarbocyanine potassium salt]
